US10105365B2, “Solid antiviral dosage forms” (AbbVie Inc., priority 2014, dated 2018)

Columns and labels:
[1] = Sink Conditions dissolution testing of Formulation C5-12; assay type: physicochemical; details: N = 6
Experimental: The release profiles of Formulation C5-12 of Example 1 were evaluated in a Sink Conditions dissolution study. The study was conducted in 900 mL of dissolution medium using a standard USP dissolution Apparatus 2 (paddle) operating at 100 RPM at 37±0.5° C. The dissolution medium was a 0.05 M sodium phosphate buffer pH 6.8 with 15 mM cTAB as a surfactant.

[2] = Human pharmacokinetic study, Example 4 Arm II (single dose, crossover); assay type: in vivo; details: both sexes, human, oral, Example 4 Arm II, single dose, non-fasting, N = 13; for half-life / AUC(0-t) / AUC(0-inf) / Tmax: blood; for AUC(0-t): read-out: AUCt, geometric mean; for AUC(0-inf): read-out: AUC∞, geometric mean; for Tmax: read-out: Tmax; for concentration at 24 h / Cmax: in vivo; for concentration at 24 h: read-out: C24, geometric mean; for Cmax: read-out: Cmax, geometric mean
Experimental: Formulation C5-12 and a second formulation were tested in Arm II of the study. Adult male and female subjects (N=30 for combined Arm I and Arm II studies) in general good health were selected to participate in the study according to the selection criteria. Subjects meeting the selection criteria were randomly assigned to one of the Regimen sequences as shown below in Table 4-A.
Study drug was administered as provided below in Table 4-B.
Each study regimen was taken orally with approximately 240 mL of water approximately 30 minutes after the start of standardized breakfast. Study regimens were administered orally in the morning on Study Day 1 of each period. For Regimen A the evening dose of the Single Tablet was taken orally with approximately 240 mL of water approximately 30 minutes after the start of the evening snack. Serial blood samples for pharmacokinetic analysis were collected 72 hours after dosing in each period.
The data presented in Tables 4-C through 4-G are preliminary data and are subject to database lock and final data verification.

[3] = Human pharmacokinetic study, Example 4 Arm III (14-day multiple dose, steady state); assay type: in vivo
[4] = Human pharmacokinetic study, Example 5 Arm I (single dose, replicated crossover); assay type: in vivo
Experimental: (§1) A Phase 1, non-fasting, open-label, two-arm, four-period, randomized, crossover study was conducted to compare and characterize the pharmacokinetics of (i) Triple Tablet when co-administered with Single Tablet, and (ii) Formulation C5-12 as discussed below. Part 1 was a single dose, two-treatment, randomized, four period, two sequence replicated crossover study with 88 subjects. Doses in the four periods were separated by at least 10 days. Part 2 was a multiple-dose, two-treatment, two period, randomized crossover study with 66 subjects. Dosing in each period was 14 days and doses in the two periods were separated by at least 10 days.
(§2) Adult male and female subjects in general good health were selected to participate in the study according to the selection criteria. Subjects meeting the selection criteria were randomly assigned to one of the sequences of Regimens A and B (four sequences for Arm I and two sequences for Arm II) as shown below in Table 5-A.
(§3) Study drug was administered as provided below in Table 5-B.
(§4) Each study regimen was taken orally with approximately 240 mL of water approximately 30 minutes after the start of standardized breakfast. Study regimens were administered orally in the morning on Study Day 1 of each period. Serial blood samples for pharmacokinetic analysis were collected 72 hours after dosing in each period.
Tables 5-C, 5-D, 5-E, and 5-F below report the Arm I pharmacokinetic data for Formulation C5-12 (separately reported for each of Compounds 1, 2, 3, and 4). Table 5-G presents the results of a relative bioavailability and 90% confidence interval analysis of the pharmacokinetic data for Formulation C5-12 relative to the reference regimen. The data presented in Tables 5-C through 5-G are preliminary data and are subject to database lock and final data verification by the statistician.

[5] = Human pharmacokinetic study, Example 5 Arm II (multiple dose, crossover); assay type: in vivo; details: Example 5 Arm II; for AUC: read-out: AUC24, geometric mean; for concentration at 24 h: read-out: C24, geometric mean; for Cmax: read-out: Cmax, geometric mean
Experimental: as §1, §2, §3, §4

[6] = Solubility (general statement); assay type: physicochemical; details: aqueous
[7] = 3 Formulation C5-12 tablets, Regimen E (C5-12): three Formulation C5-12 tablets in the morning
[8] = Regimen A (reference regimen): two Triple Tablets + one Single Tablet morning, one Single Tablet evening
[9] = Formulation C5-12, Day 14 versus Day 1
[10] = human, in vivo, oral, 3 Formulation C5-12 tablets daily, three Formulation C5-12 tablets daily for 14 days, non-fasting, Day 14, N = 14
[11] = Formulation C5-12 relative to the reference regimen
[12] = multiple dose 14 days, non-fasting, Regimen B (reference regimen): two Triple Tablets + one Single Tablet morning, one Single Tablet evening, N = 63
[13] = both sexes, human, blood, oral, 3 film-coated Formulation C5-12 tablets daily, multiple dose 14 days, non-fasting, Regimen A (C5-12): three film-coated Formulation C5-12 tablets daily, N = 63
[14] = both sexes, human, blood, oral, multiple dose 14 days, non-fasting, Regimen B (reference regimen): two Triple Tablets + one Single Tablet morning, one Single Tablet evening, N = 63

SMILES: Cc1cnc(C(=O)N[C@H]2CCCCC/C=C\[C@@H]3C[C@@]3(C(=O)NS(=O)(=O)C3CC3)NC(=O)[C@@H]3C[C@@H](Oc4nc5ccccc5c5ccccc45)CN3C2=O)cn1 [Compound 1, (2R,6S,13aS,14aR,16aS,Z)-N-(cyclopropylsulfonyl)-6-(5-methylpyrazine-2-carboxamido)-5,16-dioxo-2-(phenanthridin-6-yloxy)-1,2,3,5,6,7,8,9,10,11,13a,14,14a,15,16,16a-hexadecahydrocyclopropa[e]pyrrolo[1,2-a][1,4]diazacyclopentadecine-14a-carboxamide]
- % Released ([1]; 1 hour, 900 mL 0.05 M sodium phosphate buffer pH 6.8, 15 mM cTAB, USP Apparatus 2, 100 RPM, 37 °C): 54%
- % Released ([1]; 4 hours, pH 6.8 buffer, 15 mM cTAB): 98%
- % Released ([1]; 6 hours, pH 6.8 buffer, 15 mM cTAB): 99%
- % Released ([1]; 8 hours, pH 6.8 buffer, 15 mM cTAB): 102%
- % Released ([1]; 12 hours, pH 6.8 buffer, 15 mM cTAB): 102%
- % Released ([1]; 16 hours, pH 6.8 buffer, 15 mM cTAB): 101%
- half-life [2, 7]: 306 min
- AUC(0-t) [2, 7]: 4310 ng·h/mL
- AUC(0-inf) [2, 7]: 4330 ng·h/mL
- Tmax [2, 7]: 5.7 h
- half-life [2, 8]: 312 min
- AUC(0-t) [2, 8]: 4670 ng·h/mL
- AUC(0-inf) [2, 8]: 4690 ng·h/mL
- Tmax [2, 8]: 4.8 h
- concentration at 24 h [2, 7]: 24.5 ng/mL
- Cmax [2, 7]: 647 ng/mL
- concentration at 24 h [2, 8]: 24.3 ng/mL
- Cmax [2, 8]: 900 ng/mL
- AUC24, RATIO [3, 9]: 2.28
- C24, RATIO [3, 9]: 1.00
- Cmax, RATIO [3, 9]: 2.52
- Tmax ([3]; human, in vivo, oral, 3 Formulation C5-12 tablets daily, three Formulation C5-12 tablets daily for 14 days, non-fasting, Day 1, N = 14): 6.7 h
- AUC ([3]; human, in vivo, oral, 3 Formulation C5-12 tablets daily, three Formulation C5-12 tablets daily for 14 days, non-fasting, Day 1, N = 14, read-out: AUC24, geometric mean): 4640 ng·h/mL
- concentration at 24 h ([3]; human, in vivo, oral, 3 Formulation C5-12 tablets daily, three Formulation C5-12 tablets daily for 14 days, non-fasting, Day 1, N = 14, read-out: C24, geometric mean): 33.7 ng/mL
- Cmax ([3]; human, in vivo, oral, 3 Formulation C5-12 tablets daily, three Formulation C5-12 tablets daily for 14 days, non-fasting, Day 1, N = 14, read-out: Cmax, geometric mean): 651 ng/mL
- Tmax [3, 10]: 5.1 h
- half-life [3, 10]: 276 min
- AUC ([3]; human, in vivo, oral, 3 Formulation C5-12 tablets daily, three Formulation C5-12 tablets daily for 14 days, non-fasting, Day 14, N = 14, read-out: AUC24, geometric mean): 10600 ng·h/mL
- concentration at 24 h ([3]; human, in vivo, oral, 3 Formulation C5-12 tablets daily, three Formulation C5-12 tablets daily for 14 days, non-fasting, Day 14, N = 14, read-out: C24, geometric mean): 33.7 ng/mL
- Cmax ([3]; human, in vivo, oral, 3 Formulation C5-12 tablets daily, three Formulation C5-12 tablets daily for 14 days, non-fasting, Day 14, N = 14, read-out: Cmax, geometric mean): 1640 ng/mL
- β ([3]; three Formulation C5-12 tablets daily for 14 days, non-fasting, Day 14, N = 14): 0.151 h⁻¹
- Cmax lower than Cmax for the reference regimen [4, 11]: 30%
- Cmax ([4]; both sexes, human, blood, oral, 3 film-coated Formulation C5-12 tablets, single dose, non-fasting, Regimen A (C5-12): three film-coated Formulation C5-12 tablets, N = 172, read-out: Cmax, geometric mean): 618 ng/mL
- AUC(0-t) ([4]; both sexes, human, in vivo, oral, 3 film-coated Formulation C5-12 tablets, single dose, non-fasting, Regimen A (C5-12): three film-coated Formulation C5-12 tablets, N = 172, read-out: AUCt, geometric mean): 4460 ng·h/mL
- AUC(0-inf) ([4]; both sexes, human, in vivo, oral, 3 film-coated Formulation C5-12 tablets, single dose, non-fasting, Regimen A (C5-12): three film-coated Formulation C5-12 tablets, N = 172, read-out: AUC∞, geometric mean): 4490 ng·h/mL
- Tmax ([4]; both sexes, human, in vivo, oral, 3 film-coated Formulation C5-12 tablets, single dose, non-fasting, Regimen A (C5-12): three film-coated Formulation C5-12 tablets, N = 172, read-out: Tmax, first value (geometric mean)): 5 h
- half-life ([4]; both sexes, human, in vivo, oral, single dose, non-fasting, Regimen B (reference regimen): two Triple Tablets + one Single Tablet morning, one Single Tablet evening, N = 171): 361 min
- AUC(0-t) ([4]; both sexes, human, in vivo, oral, single dose, non-fasting, Regimen B (reference regimen): two Triple Tablets + one Single Tablet morning, one Single Tablet evening, N = 171, read-out: AUCt, geometric mean): 5470 ng·h/mL
- AUC(0-inf) ([4]; both sexes, human, in vivo, oral, single dose, non-fasting, Regimen B (reference regimen): two Triple Tablets + one Single Tablet morning, one Single Tablet evening, N = 171, read-out: AUC∞, geometric mean): 5490 ng·h/mL
- Tmax ([4]; both sexes, human, in vivo, oral, single dose, non-fasting, Regimen B (reference regimen): two Triple Tablets + one Single Tablet morning, one Single Tablet evening, N = 171, read-out: Tmax, first value (geometric mean)): 5 h
- t1/2 ([4]; single dose, non-fasting, Regimen A (C5-12): three film-coated Formulation C5-12 tablets, N = 172): 6.15 h
- Cmax, geometric mean ([4]; single dose, non-fasting, Regimen B (reference regimen): two Triple Tablets + one Single Tablet morning, one Single Tablet evening, N = 171): 935 ng/mL
- β, geometric mean ([5]; multiple dose 14 days, non-fasting, Regimen A (C5-12): three film-coated Formulation C5-12 tablets daily, N = 63): 0.129 h⁻¹
- Tmax, first value (geometric mean) [5, 12]: 4.0 h
- β, geometric mean [5, 12]: 0.128 h⁻¹
- Exposures (C24,ss and AUC24,ss) versus the reference regimen ([5]; Formulation C5-12, point estimate and 90% confidence interval for the GMR within 0.80-1.25): bioequivalent
- Cmax,ss lower than Cmax,ss for the reference regimen [5, 11]: 27%
- half-life [5, 13]: 312 min
- AUC [5, 13]: 8900 ng·h/mL
- concentration at 24 h [5, 13]: 34.6 ng/mL
- Cmax [5, 13]: 1500 ng/mL
- Tmax ([5]; both sexes, human, blood, oral, 3 film-coated Formulation C5-12 tablets daily, multiple dose 14 days, non-fasting, Regimen A (C5-12): three film-coated Formulation C5-12 tablets daily, N = 63, read-out: Tmax, first value (geometric mean)): 5 h
- half-life [5, 14]: 318 min
- AUC [5, 14]: 9240 ng·h/mL
- concentration at 24 h [5, 14]: 30.4 ng/mL
- Cmax [5, 14]: 1950 ng/mL
- bioavailability at 24 h ([5]; both sexes, human, blood, oral, Regimen A (C5-12) vs. B (reference regimen), read-out: Relative bioavailability, C24, point estimate): 106%
- Solubility [6]: low solubility
